Where two headings read alike, the source gives them in different places.
Columns and labels:
[1] = tested on: Mycobacterium tuberculosis rpoB gene mutants; design: key to DRUG-SUSCEPTIBILITY: R represents resistance; S represents susceptibility; conditions: cited from earlier work
[2] = tested on: Mycobacterium tuberculosis; format: cell-based

| SMILES | DRUG-SUSCEPTIBILITY ([1]; 509 MUTANT (probe Mt509)) | DRUG-SUSCEPTIBILITY ([1]; 509 WILD TYPE (probe Wt509)) | DRUG-SUSCEPTIBILITY ([1]; 524 MUTANT (probe Mt524)) | DRUG-SUSCEPTIBILITY ([1]; 524 WILD TYPE (probe Wt524)) | DRUG-SUSCEPTIBILITY ([1]; 533 MUTANT (probe Mt533)) | DRUG-SUSCEPTIBILITY ([1]; 533 WILD TYPE (probe Wt533)) | drug-susceptibility of codon 526 mutants ([1]; codon 526 His>Gln, Gly, Asn, Ala, or Cys) | drug-susceptibility of codon 526 mutants ([1]; codon 526 His>Tyr, Pro, Arg, or Asp) | drug-susceptibility test result [2] |
| --- | --- | --- | --- | --- | --- | --- | --- | --- | --- |
| CO[C@H]1/C=C/O[C@@]2(C)Oc3c(C)c(O)c4c(c3C2=O)C2=NC3(CCN(CC(C)C)CC3)NC2=C(NC(=O)/C(C)=C\C=C\[C@H](C)[C@H](O)[C@@H](C)[C@@H](O)[C@@H](C)[C@H](OC(C)=O)[C@@H]1C)C4=O [rifabutin, Rifabutin] | S | RFP-S, RBU-S | RFP-R, RBU-R | RFP-S, RBU-S | RFP-R, RBU-R | RFP-S, RBU-S | susceptibility | resistance |  |
| CO[C@H]1/C=C/O[C@@]2(C)Oc3c(C)c(O)c4c(O)c(c(/C=N/N5CCN(C)CC5)c(O)c4c3C2=O)NC(=O)/C(C)=C\C=C\[C@H](C)[C@H](O)[C@@H](C)[C@@H](O)[C@@H](C)[C@H](OC(C)=O)[C@@H]1C [rifampin] | R | RFP-S, RBU-S | RFP-R, RBU-R | RFP-S, RBU-S | RFP-R, RBU-R | RFP-S, RBU-S |  |  | resistance |

From US20040038233A1, “Diagnosis kit for mycobacterium species indentification and drug-resistance detection and manufacturing method thereof” (priority 2000, published 2004)
